Among the test systems are EKVX; SF-268; NCI-H226; Hs-578T; MCF7; TK-10; UACC-62; CCRF-CEM; SK-OV-3; HL-60; NCI/ADR-RES; HT-29; OVCAR-4; HCT-116; HCT-15; PC-3; RXF 393; CAKI-1; UACC-257; DLD-1.
Assay in all cases: NCI-60 cell line screen, 48 h

Each structure is given as a SMILES string.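 Assay format: 96-well plates, 48-hour exposure. GI50 is the concentration that inhibits growth by half.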 The source made the active and inactive calls. Cut-off read from the data, not from the text of the source: active = GI50 up to about 1.1 µM and inactive = higher.

In the case of `Cn1c(=O)c2nc(SCCN3CCOCC3)[nH]c2n(C)c1=S`, the GI50 in the assay on EKVX, with SF-268, with NCI-H226, in the assay with Hs-578T, in the assay with MCF7 and with TK-10 was > 100 µM (inactive) in each case. Besides, the GI50 with UACC-62, in the assay on CCRF-CEM, with SK-OV-3, in the assay on HL-60, in the assay with NCI/ADR-RES and in the assay on HT-29 was > 100 µM (inactive) throughout. In addition, the GI50 is > 100 µM (inactive) in the assay with OVCAR-4; > 100 µM (inactive) with HCT-116; above 100 µM with HCT-15; > 100 µM (inactive) in the assay with PC-3; > 100 µM (inactive) in the assay on RXF 393; > 100 µM (inactive) in the assay with CAKI-1. Besides, the GI50 in the assay on UACC-257 is > 100 µM (inactive).
`COc1cc2c(OC)c3cc(C)oc(=O)c3c(O)c2c(O)c1-c1c(OC)cc2c(OC)c3cc(C)oc(=O)c3c(O)c2c1O`: the GI50 is 21.9 µM (inactive) in the assay on EKVX; 21.5 µM (inactive) in the assay on SF-268; 20.3 µM (inactive) in the assay with NCI-H226; 34.2 µM (inactive) with Hs-578T; 25.6 µM (inactive) in the assay with MCF7; 24.4 µM (inactive) in the assay on TK-10. Besides, the GI50 with UACC-62 was 20.9 µM (inactive); in the assay with CCRF-CEM, 18.6 µM (inactive); with SK-OV-3, 45.2 µM (inactive); in the assay on HL-60 it was 15.2 µM (inactive); in the assay with NCI/ADR-RES it was 17.1 µM (inactive); in the assay on HT-29, 22 µM (inactive). The GI50 in the assay with OVCAR-4 was 39.1 µM (inactive); in the assay on HCT-116 it was 14.9 µM (inactive); with HCT-15 it was 18.5 µM; in the assay on PC-3, 14 µM (inactive); in the assay on RXF 393 it was 20.1 µM (inactive); in the assay on CAKI-1, 15.2 µM (inactive). Further, the GI50 in the assay on UACC-257 is 20.2 µM (inactive).
Turning to `CN(C)/C=C/C(=O)c1cccc(C(=O)/C=C/N(C)C)n1`, the GI50 in the assay on EKVX, with SF-268, with NCI-H226, in the assay on TK-10, in the assay on UACC-62 and with CCRF-CEM was > 100 µM (inactive) in each case. Also, the GI50 with SK-OV-3, in the assay on HL-60, in the assay on DLD-1, with HT-29, in the assay with OVCAR-4 and with HCT-116 was > 100 µM (inactive) in each case. In addition, the GI50 with HCT-15 was above 100 µM; with RXF 393, > 100 µM (inactive); in the assay on UACC-257, > 100 µM (inactive).
`O=C1c2c(c3c4ccccc4n(CC4CO4)c3c3[nH]c4ccccc4c23)C(=O)N1Cc1ccccc1` (stereo not drawn): the GI50 in the assay with SF-268 was > 100 µM (inactive); with NCI-H226, 48.6 µM (inactive); in the assay with TK-10, > 100 µM (inactive); in the assay with UACC-62, > 100 µM (inactive); with CCRF-CEM, > 100 µM (inactive); in the assay on SK-OV-3, > 100 µM (inactive). Also, the GI50 in the assay on HL-60 was > 100 µM (inactive); with DLD-1, > 10 µM (inactive); in the assay with HT-29 it was > 100 µM (inactive); in the assay with OVCAR-4 it was 33 µM (inactive); with HCT-116, > 100 µM (inactive); with HCT-15, above 100 µM. The GI50 in the assay on RXF 393, in the assay with CAKI-1 and with UACC-257 was > 100 µM (inactive) each time.
On to `CC1=NN(C(=O)Cc2ccccc2)C(=O)/C1=C\c1ccc([N+](=O)[O-])cc1`, for which the GI50 in the assay with EKVX, in the assay on SF-268, with NCI-H226, in the assay with TK-10, with UACC-62 and with CCRF-CEM was > 100 µM (inactive) in each case. The GI50 is > 100 µM (inactive) in the assay with SK-OV-3; > 100 µM (inactive) in the assay with DLD-1; > 100 µM (inactive) in the assay on HT-29; > 100 µM (inactive) in the assay with OVCAR-4; > 100 µM (inactive) in the assay on HCT-116; above 100 µM with HCT-15. Also, the GI50 with RXF 393, in the assay with CAKI-1 and in the assay with UACC-257 was > 100 µM (inactive) throughout.
For the compound `CN1C(=O)N(c2nc3ccccc3[nH]2)C(C)(C)C1=O`, the GI50 with EKVX, in the assay with SF-268, with NCI-H226, in the assay with UACC-62, in the assay with CCRF-CEM and in the assay with SK-OV-3 was > 100 µM (inactive) throughout. Also, the GI50 in the assay on HL-60 is > 100 µM (inactive); with DLD-1, > 100 µM (inactive); with HT-29, > 100 µM (inactive); in the assay with OVCAR-4, > 100 µM (inactive); with HCT-116 it was > 100 µM (inactive); with HCT-15 it was above 100 µM. Also, the GI50 with RXF 393 and in the assay on UACC-257 was > 100 µM (inactive) in each case.
Consider `O=C(NCCCN1CCN(CCCNC(=O)c2cc(-c3ccccc3)nc3ccccc23)CC1)c1cc(-c2ccccc2)nc2ccccc12`, for which the GI50 was 21.5 µM (inactive) in the assay with EKVX; > 38.5 µM (inactive) with SF-268; 27.7 µM (inactive) in the assay on NCI-H226; 13.2 µM (inactive) with Hs-578T; 9.53 µM (inactive) in the assay with MCF7; 27.3 µM (inactive) in the assay on TK-10. Further, the GI50 in the assay on UACC-62 is 15.9 µM (inactive); with CCRF-CEM, 11.6 µM (inactive); in the assay with SK-OV-3, 16.4 µM (inactive); in the assay with HL-60, > 32.7 µM (inactive); in the assay with NCI/ADR-RES, 24.1 µM (inactive); in the assay on HT-29, 3.63 µM (inactive). Further, the GI50 was 17.8 µM (inactive) in the assay on OVCAR-4; 23.4 µM (inactive) in the assay on HCT-116; 19.4 µM in the assay with HCT-15; 9.62 µM (inactive) in the assay on PC-3; > 30.9 µM (inactive) in the assay with RXF 393; 7.59 µM (inactive) in the assay with CAKI-1. Besides, the GI50 in the assay on UACC-257 was 2.29 µM (inactive).
Consider `CCOC(=O)C1=C(C)N(c2ccc(C)cc2)C2=C(C(=O)N(c3ccccc3)C2c2ccccc2)C1c1ccccc1` (stereo not drawn), for which the GI50 in the assay on EKVX is > 25 µM (inactive); in the assay on SF-268, > 25 µM (inactive); in the assay with NCI-H226, > 25 µM (inactive); in the assay on TK-10 it was > 25 µM (inactive); in the assay with UACC-62, 17.2 µM (inactive); with CCRF-CEM, 20.8 µM (inactive). Further, the GI50 with HL-60 was > 25 µM (inactive); in the assay with DLD-1 it was 12.3 µM (inactive); in the assay with HT-29, > 25 µM (inactive); in the assay with OVCAR-4 it was 11.3 µM (inactive); in the assay on HCT-116, 17.6 µM (inactive); in the assay with HCT-15, above 25 µM. Also, the GI50 was 0.558 µM (active) in the assay with RXF 393 and > 25 µM (inactive) with UACC-257.
In the case of `Cc1cc2c(cc1C)[n+]([O-])c(C(=O)C/C(=N/NC(=S)NN)C(=O)Nc1cccc(C(F)(F)F)c1)c[n+]2[O-]`, the GI50 was > 100 µM (inactive) in the assay with EKVX; > 100 µM (inactive) in the assay with SF-268; > 100 µM (inactive) with NCI-H226; > 100 µM (inactive) with TK-10; > 100 µM (inactive) with UACC-62; 56.9 µM (inactive) in the assay on CCRF-CEM. Also, the GI50 in the assay on SK-OV-3, in the assay on HL-60, in the assay with DLD-1, in the assay with HT-29, with OVCAR-4 and with HCT-116 was > 100 µM (inactive) throughout. The GI50 in the assay on HCT-15 was above 100 µM; in the assay on CAKI-1 it was > 100 µM (inactive); in the assay on UACC-257, > 100 µM (inactive).
Take `COc1ccc(Cc2c3cc(O)c([O-])cc3cc[n+]2C)cc1`: the GI50 in the assay with EKVX was > 73.6 µM (inactive); with SF-268, 13.5 µM (inactive); in the assay on NCI-H226, 25.7 µM (inactive); in the assay on TK-10 it was 98.4 µM (inactive); in the assay on UACC-62, 23.9 µM (inactive); in the assay on CCRF-CEM, 4.95 µM (inactive). The GI50 in the assay on SK-OV-3 was 41.5 µM (inactive); with HL-60, 16.3 µM (inactive); with DLD-1, 10.6 µM (inactive); in the assay on HT-29 it was 52.7 µM (inactive); in the assay on OVCAR-4, 51.3 µM (inactive); in the assay on HCT-116, 19.4 µM (inactive). Moreover, the GI50 with RXF 393 was 11.8 µM (inactive); with CAKI-1 it was 8.55 µM (inactive); with UACC-257, 28.4 µM (inactive).
Regarding `COc1ccc(/C=C/c2nnc(S)[nH]2)cc1OC`, the GI50 in the assay on SF-268, in the assay with NCI-H226, in the assay with TK-10, with UACC-62, in the assay on CCRF-CEM and with HL-60 was > 100 µM (inactive) throughout. Further, the GI50 is > 100 µM (inactive) with DLD-1; > 100 µM (inactive) in the assay on HT-29; > 100 µM (inactive) with OVCAR-4; > 100 µM (inactive) with HCT-116; above 100 µM with HCT-15; > 100 µM (inactive) in the assay with RXF 393. The GI50 in the assay with CAKI-1 and in the assay with UACC-257 was > 100 µM (inactive) in each case.
Regarding `CC(C)=CCC[C@@H](C)C1=C(O)C(=O)C(C)=C(Nc2ccccc2)C1=O`, the GI50 with EKVX is 24.2 µM (inactive); in the assay with SF-268, 19.8 µM (inactive); in the assay with NCI-H226, 26.7 µM (inactive); in the assay with Hs-578T, 31.8 µM (inactive); in the assay on MCF7, 24.5 µM (inactive); in the assay with TK-10, 29 µM (inactive). The GI50 was 13 µM (inactive) in the assay with UACC-62; 1.62 µM (inactive) with CCRF-CEM; 27.6 µM (inactive) in the assay on SK-OV-3; 2.98 µM (inactive) in the assay on HL-60; 4.03 µM (inactive) in the assay on NCI/ADR-RES; 31.3 µM (inactive) in the assay with HT-29. Moreover, the GI50 is 19.3 µM (inactive) in the assay with OVCAR-4; 18.1 µM (inactive) in the assay on HCT-116; 7.5 µM with HCT-15; 23.9 µM (inactive) with PC-3; 19.2 µM (inactive) in the assay with RXF 393; 15.1 µM (inactive) in the assay on CAKI-1. Also, in the assay with UACC-257, the GI50 is 28.1 µM (inactive).
